Laboratory results taken from patent US11304926B2, “Application of transient receptor potential cation channel TRPV3 in developing drug for preventing or treating psoriasis” (CHINA PHARMACEUTICAL UNIVERSITY, priority 2019, dated 2022).
“Also recorded” adds a separate entry of the source.

Key:
mTRPV3 = biological target: T1, mTRPV3 (Mus musculus, UniProt Q8K424); assay: Whole-cell patch clamp of 2-APB induced current in mTRPV3-HEK-293 cells; format: cell-based
T1 construct: expressed in transfected cells
T1 sequence (Q8K424 1-791): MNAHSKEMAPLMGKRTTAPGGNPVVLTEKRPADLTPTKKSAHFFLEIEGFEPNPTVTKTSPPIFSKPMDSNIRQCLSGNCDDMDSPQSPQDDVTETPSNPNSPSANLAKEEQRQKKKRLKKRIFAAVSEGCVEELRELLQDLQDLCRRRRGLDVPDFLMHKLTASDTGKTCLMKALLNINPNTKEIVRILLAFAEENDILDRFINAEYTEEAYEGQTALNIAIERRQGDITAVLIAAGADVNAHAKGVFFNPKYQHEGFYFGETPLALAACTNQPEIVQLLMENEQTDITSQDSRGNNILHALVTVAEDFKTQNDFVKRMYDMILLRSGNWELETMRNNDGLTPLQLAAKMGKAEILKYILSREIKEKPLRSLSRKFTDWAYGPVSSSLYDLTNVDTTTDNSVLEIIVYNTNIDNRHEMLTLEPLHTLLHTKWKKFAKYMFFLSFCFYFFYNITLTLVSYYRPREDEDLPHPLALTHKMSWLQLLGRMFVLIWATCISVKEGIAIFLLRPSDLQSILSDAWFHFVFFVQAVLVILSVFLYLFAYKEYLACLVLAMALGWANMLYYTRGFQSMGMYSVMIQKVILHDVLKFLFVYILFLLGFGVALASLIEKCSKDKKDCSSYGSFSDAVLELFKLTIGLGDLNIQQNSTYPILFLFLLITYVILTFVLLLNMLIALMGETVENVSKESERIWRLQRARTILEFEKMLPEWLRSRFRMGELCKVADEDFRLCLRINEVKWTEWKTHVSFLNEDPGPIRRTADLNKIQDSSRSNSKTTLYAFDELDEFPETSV
Description: mTRPV3 plasmids were donated by Professor Jie Zheng from UC Davis. Transfection steps were as follows: HEK-293 cells with a confluence ranging from 70% to 80% and a good growth state were seeded into T-60 small dishes the day before transfection, each small dish contained 4×10^5 cells, and the cells were cultured without penicillin/streptomycin overnight at 37° C. in 5% CO2. 10 μL of plasmids (plasmid concentration was 1000 ng/μL) were diluted with 250 μl of DMEM (article number: 12800017, Gibco), and meanwhile, 10 μL of Lipofectamine 2000 (article number: 11668027, Gibco) was diluted into 250 μL of DMEM. […] Monoclone cells were selected by a limiting dilution method: the screened cells were digested and counted, and seeded into a 96-well plate in sequence at densities of 10^4 cells/well, 10^3 cells/well, 10^2 cells/well, 10 cells/well, and 1 cell/well. Under a fluorescence microscope, wells of separate cells with green fluorescence were labeled, and cells amplified from the wells were HEK-293 cells stably transfecting the mTRPV3. […] HEK-293 cells stably transecting mTRPV3 (mTRPV3-HEK-293) were seeded into T-60 small dishes with a confluence ranging from 20% to 30%, and whole cell current was recorded by a patch clamp amplification system next day. […]

[1] = system: mouse psoriasis model induced by 5% IMQ; assay: Content of related inflammatory factors (ELISA) in skin of mouse psoriasis model; format: in vivo
Description: Contents of IL17, IL23, CXCL15 and myeloperoxidase (MPO) in the skin of the mouse were detected by enzyme-linked immunosorbent assay (ELISA), and ELISA kits for various inflammatory factors were all purchased from ELISA Biotechnology Co., Ltd. Specific operation steps were briefly described as follows according to instructions: 50 mg of fresh skin sample was added with 450 μL of PBS (pH=7.2 to 7.4), homogenized on ice, and centrifuged at 5000 rpm for 15 minutes, and then a supernatant was used for detection. A standard substance was diluted according to a proportion, and a blank well, a standard substance well and a well for sample to be detected were set respectively. 50 μL of standard substance was accurately loaded to an ELISA coating plate, and 40 μL of sample diluent was added into the well for sample to be detected firstly, and then added with 10 μL of sample to be detected (a final dilution concentration of the sample was 5 times). The sample was loaded to bottoms of the wells in the ELISA plate without touching walls of the wells to the greatest extent, and then shaken and mixed gently. After sealing the plate with a microplate sealer, the mixture was incubated at 37° C. for 30 minutes. A 30-times concentrated cleaning solution was diluted 30 times with distilled water for later use. The microplate sealer was carefully removed, the liquid was discarded, and the remaining was subjected to spin-drying, and the cleaning solution was fully filled into each well, stood for 30 seconds and then discarded. The steps were repeated for 5 times, and then the mixture was patted dry. 50 μL of ELISA reagent was added into each well, except for the blank well. After sealing the plate with a microplate sealer, the mixture was incubated at 37° C. for 30 minutes. The microplate sealer was carefully removed, the liquid was discarded, and the remaining was subjected to spin-drying, and the cleaning solution was fully filled into each well, stood for 30 seconds and then discarded. […] An absorbance (OD value) of each well was measured sequentially at a wavelength of 450 nm. […]

[2] = system: mouse psoriasis model induced by 5% IMQ; assay: Histopathological examination (HE staining, epidermal thickness) of mouse psoriasis model under drug intervention; format: in vivo; settings: subcutaneous injection, 5% IMQ model
Description: After sacrifice of the mice, skin tissues were collected, fixed with 10% (mass fraction) paraformaldehyde solution, embedded in paraffin, and then subjected to 3 μm slicing and HE staining. An Eclipse Ti inverted microscope (Nikon Corporation, Tokyo, Japan) was used to observe and take a photo at 400-times magnification, and NIS-element BR software (Nikon Corporation, Tokyo, Japan) was used to measure an epidermal thickness of the skin. Six fields of view were randomly selected for each section. […] It should be noted that measurement data was represented by mean±standard deviation (mean±SD), and was detected by One-Way ANOVA, wherein ** represented that P<0.01, which was relative to the vaseline group.

[3] = system: mouse psoriasis model induced by 5% IMQ; assay: Neutrophil infiltration (Ly6G+ cells, immunofluorescence) of mouse psoriasis model; format: in vivo; settings: 5% IMQ model
[4] = ELISA, vs modeling mouse applied with IMQ

Q: Which “inhibition of whole-cell current induced by 2-APB” value (mTRPV3; Scutellarein 0.3-30 μM, 2-APB 100 μM, mTRPV3-HEK-293) does the source give for O=c1cc(-c2ccc(O)cc2)oc2cc(O)c(O)c(O)c12 [Scutellarein] here?
A: could inhibit the whole-cell current induced by the 2-APB and had a dose dependence; also recorded: obvious inhibitory effect

Q: And the IC50 (mTRPV3; whole-cell patch clamp, mTRPV3-HEK-293, 2-APB 100 μM, nonlinear fitting)?
A: 1.01 µM

Q: What about the “secretion of the related inflammatory factors” value ([1]; 5% IMQ model) of the same compound?
A: obviously reduce

Q: What about the “content of CXCL15 in the skin” value [1, 4] of the same compound?
A: significantly lower

Q: And the “content of MPO in the skin” value [1, 4]?
A: significantly lower

Q: And the “epidermal thickness at lesion part” value [2]?
A: significantly reduce

Q: And the “pathological changes of the skin induced by imiquimod” value [2]?
A: could improve the above pathological changes

Q: What about the neutrophil infiltration [3] of the same compound?
A: obviously reduce
